Experimental findings from patent US7338955B1, “Medicament for treatment of neuropathies” (Lilly ICOS LLC, priority 1999, dated 2008) are described below.

SMILES strings stand for the structures.

One assay has as its system diabetic polyneuropathy. Kind of assay: Case report: type 2 diabetes patient with diabetic polyneuropathy treated with sildenafil. The format is in vivo, human. The following applies: twelve months after start of therapy. The method, then:
A patient had been suffering from diabetes mellitus, type 2, for 9 years. While blood glucose values (HbA1c between 6 and 7%) were good, symptoms of a diabetic polyneuropathy appeared, namely vibration sensing of 2/8, no filament sensing, and a reduced hot/cold differentiation. Because of a simultaneous erectile dysfunction they were treated with sildenafil in its commercially available preparation (tablets) at 50 mg/week in a single administration.
Subjectively, the patient noted disappearance of sensory misperceptions of temperature.

A further assay concerns painful neuropathy. Kind of assay: Case report: type 1 diabetes patient with painful neuropathy treated with sildenafil. The settings on record: 50 mg/week single administration. It is filed as in vivo, human. The method, then:
A patient had been suffering from diabetes mellitus, type 1, for about 35 years. Complications included a retinopathy and a painful neuropathy. Under intensified insulin therapy, blood glucose metabolism data were in a sub-optimum range (HbA1c around 8%). Thus, the patient suffered from a painful neuropathy and was treated unsuccessfully with various conventional medicaments.
Objectifiable diagnostic data were improved as well.

Regarding `CCCc1nn(C)c2c(=O)[nH]c(-c3cc(S(=O)(=O)N4CCN(C)CC4)ccc3OCC)nc12` [sildenafil], the neurologic situation result in the assay with diabetic polyneuropathy (50 mg/week single administration (tablets)) is given as “largely normal”. Moreover, the “sensory misperceptions of temperature (subjective)” value with diabetic polyneuropathy (50 mg/week) is reported as “disappearance”. Moreover, in the assay on diabetic polyneuropathy (50 mg/week, 2/8 before therapy), the vibration sensing is 5/8. Moreover, the filament sensing entry in the assay on diabetic polyneuropathy (50 mg/week, no filament sensing before therapy) is given as “intact”. Moreover, the hot/cold differentiation result in the assay with diabetic polyneuropathy (50 mg/week, reduced before therapy) was “intact”. Further, the symptomatic pain result in the assay with painful neuropathy (in the course of the following three months) is “lasting improvement”. Further, the objectifiable diagnostic data entry in the assay on painful neuropathy (three months) was “improved”.
